# Test results published in patent US11091479B2, “Triazolopyridin-3-ones or their salts and pharmaceutical compositions comprising the same” (YUHAN CORPORATION, priority 2018, dated 2021).
# Structures can show the parent of a compound that is named as a salt.
# Columns and labels:
# Format in all cases: biochemical
# [1] = target: T1, recombinant human MAO-B (monoamine oxidase-B) (Homo sapiens, UniProt P27338); assay: Activity on recombinant human MAO-B, method similar to VAP-1 assay, 1 mM benzylamine substrate; details: read-out: Inhibitory Activity (IC50, nM) MAO-B
# T1 construct: purchased Sigma-Aldrich
# T1 sequence (P27338 1-520): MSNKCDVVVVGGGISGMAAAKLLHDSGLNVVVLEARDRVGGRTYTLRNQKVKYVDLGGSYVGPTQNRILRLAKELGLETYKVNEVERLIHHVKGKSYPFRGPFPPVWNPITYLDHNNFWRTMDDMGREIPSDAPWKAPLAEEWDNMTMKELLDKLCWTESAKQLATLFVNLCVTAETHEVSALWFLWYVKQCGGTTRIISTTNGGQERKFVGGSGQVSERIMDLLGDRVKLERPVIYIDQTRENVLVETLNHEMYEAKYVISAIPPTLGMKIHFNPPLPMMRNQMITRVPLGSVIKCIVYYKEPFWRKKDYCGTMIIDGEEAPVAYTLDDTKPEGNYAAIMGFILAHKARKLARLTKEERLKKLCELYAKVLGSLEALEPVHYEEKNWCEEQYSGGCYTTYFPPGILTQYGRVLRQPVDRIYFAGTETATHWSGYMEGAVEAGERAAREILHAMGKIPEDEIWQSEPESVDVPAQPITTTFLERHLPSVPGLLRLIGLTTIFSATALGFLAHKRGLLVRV
# How it was run: (§1)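 Amplex Red/HRP-coupled H2O2 fluorescence assay run as for VAP-1: enzyme in 50 mM sodium phosphate pH 7.4 preincubated with compound 30 min at 37 °C, then substrate (putrescine for DAO, benzylamine for MAO-B, tyramine for MAO-A) added with 200 uM Amplex Red, 1 U/mL HRP. Signal rate over 1-2 h; IC50 from 4-parameter logistic fit.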
# [2] = target: T2, recombinant human MAO-A (monoamine oxidase-A) (Homo sapiens, UniProt P21397); assay: Activity on recombinant human MAO-A, method similar to VAP-1 assay, 0.5 mM tyramine substrate; details: read-out: Inhibitory Activity (IC50, nM) MAO-A
# T2 construct: purchased Sigma-Aldrich
# T2 sequence (P21397 1-527): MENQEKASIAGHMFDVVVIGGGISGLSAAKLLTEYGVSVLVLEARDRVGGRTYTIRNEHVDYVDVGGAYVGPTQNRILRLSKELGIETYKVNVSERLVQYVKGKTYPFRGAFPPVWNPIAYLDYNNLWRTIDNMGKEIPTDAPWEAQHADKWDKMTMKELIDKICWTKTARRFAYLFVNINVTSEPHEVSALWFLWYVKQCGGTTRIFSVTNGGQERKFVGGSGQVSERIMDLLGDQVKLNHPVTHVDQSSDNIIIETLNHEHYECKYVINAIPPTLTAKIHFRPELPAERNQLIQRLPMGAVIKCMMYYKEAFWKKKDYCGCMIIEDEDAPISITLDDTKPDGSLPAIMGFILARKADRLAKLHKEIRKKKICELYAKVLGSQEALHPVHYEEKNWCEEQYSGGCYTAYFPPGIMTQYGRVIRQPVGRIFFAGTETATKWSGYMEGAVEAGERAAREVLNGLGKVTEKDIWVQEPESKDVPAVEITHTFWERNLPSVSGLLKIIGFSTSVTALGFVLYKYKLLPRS
# How it was run: as §1
# recombinant human VAP-1 = target: T3, recombinant human VAP-1 (Homo sapiens, UniProt Q16853); assay: Activity on recombinant human VAP-1, HRP-coupled Amplex Red hydrogen peroxide assay, benzylamine substrate; details: 30 min incubation at 37° C., 1 mM benzylamine, read-out: Inhibitory Activity (IC50, nM) human VAP-1
# T3 construct: purchased R&D systems
# T3 sequence (Q16853 1-763): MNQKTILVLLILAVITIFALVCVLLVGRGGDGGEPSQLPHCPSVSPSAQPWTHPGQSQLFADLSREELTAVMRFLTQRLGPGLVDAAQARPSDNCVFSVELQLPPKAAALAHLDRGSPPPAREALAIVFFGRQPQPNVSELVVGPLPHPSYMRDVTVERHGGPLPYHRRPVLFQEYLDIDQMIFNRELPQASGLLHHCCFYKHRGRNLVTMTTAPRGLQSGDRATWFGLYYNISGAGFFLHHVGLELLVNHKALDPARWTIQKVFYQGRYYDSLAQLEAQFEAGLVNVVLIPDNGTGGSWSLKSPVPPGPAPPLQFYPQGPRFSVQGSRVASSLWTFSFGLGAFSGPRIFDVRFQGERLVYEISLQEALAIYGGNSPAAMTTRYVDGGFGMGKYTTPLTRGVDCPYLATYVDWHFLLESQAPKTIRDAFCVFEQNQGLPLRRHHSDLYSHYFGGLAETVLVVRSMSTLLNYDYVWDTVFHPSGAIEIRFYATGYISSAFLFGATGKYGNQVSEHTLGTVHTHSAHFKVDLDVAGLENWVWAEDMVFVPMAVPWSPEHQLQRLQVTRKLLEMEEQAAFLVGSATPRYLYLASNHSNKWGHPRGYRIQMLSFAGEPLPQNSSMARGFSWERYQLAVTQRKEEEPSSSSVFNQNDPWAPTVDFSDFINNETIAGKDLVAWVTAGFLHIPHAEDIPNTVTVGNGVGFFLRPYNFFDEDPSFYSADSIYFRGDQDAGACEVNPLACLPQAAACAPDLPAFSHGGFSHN
# How it was run: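 Recombinant human VAP-1 in 50 mM sodium phosphate pH 7.4 preincubated with compound for 30 min at 37 °C, then 1 mM benzylamine, 200 uM Amplex Red and 1 U/mL HRP added. Resorufin fluorescence (ex 544/em 590 nm) followed over 1-2 h; % signal-rate decrease vs DMSO control, 8-point 4-parameter fit for IC50.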
# [3] = target: T4, recombinant human DAO (diamine oxidase) (Homo sapiens, UniProt P19801); assay: Activity on recombinant human DAO, method similar to VAP-1 assay, 1 mM putrescine substrate; details: read-out: Inhibitory Activity (IC50, nM) DAO
# T4 construct: purchased R&D systems
# T4 sequence (P19801 20-751): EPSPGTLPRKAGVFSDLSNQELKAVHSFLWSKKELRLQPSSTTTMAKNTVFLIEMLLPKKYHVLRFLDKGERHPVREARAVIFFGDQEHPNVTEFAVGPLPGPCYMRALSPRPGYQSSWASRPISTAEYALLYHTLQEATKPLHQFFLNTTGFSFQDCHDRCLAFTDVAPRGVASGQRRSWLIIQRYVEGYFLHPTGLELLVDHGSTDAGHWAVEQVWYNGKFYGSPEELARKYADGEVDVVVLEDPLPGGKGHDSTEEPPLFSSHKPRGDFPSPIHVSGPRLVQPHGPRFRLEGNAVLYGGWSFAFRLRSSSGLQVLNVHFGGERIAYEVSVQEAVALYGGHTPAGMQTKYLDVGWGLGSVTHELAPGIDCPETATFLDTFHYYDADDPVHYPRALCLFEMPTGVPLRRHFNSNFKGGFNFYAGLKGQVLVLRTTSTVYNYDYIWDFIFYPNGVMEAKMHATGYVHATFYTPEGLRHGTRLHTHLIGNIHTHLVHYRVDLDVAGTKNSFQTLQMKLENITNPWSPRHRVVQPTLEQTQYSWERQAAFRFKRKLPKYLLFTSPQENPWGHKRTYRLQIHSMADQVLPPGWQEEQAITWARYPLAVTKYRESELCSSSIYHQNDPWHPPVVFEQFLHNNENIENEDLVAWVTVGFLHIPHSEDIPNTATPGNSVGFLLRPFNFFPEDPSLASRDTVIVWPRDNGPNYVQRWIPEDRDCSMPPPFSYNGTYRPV
# How it was run: as §1
SMILES,IC50 [1] [nM],IC50 [2] [nM],IC50 (recombinant human VAP-1) [nM],IC50 [3] [nM]
"NCC(Cn1nc2cc(-c3ccc(N4CCNCC4)cc3)ccn2c1=O)=C(F)F [Example 49, 2-[2-(aminomethyl)-3,3-difluoro-allyl]-7-(4-piperazin-1-ylphenyl)-[1,2,4]triazolo[4,3-a]pyridin-3-one ditrifluoroacetate]",53000,> 100000,1.6,390
"NCC(Cn1nc2cc(-c3ccc(C(F)(F)F)nc3)ccn2c1=O)=C(F)F [Example 50, 2-[2-(aminomethyl)-3,3-difluoro-allyl]-7-[6-(trifluoromethyl)-3-pyridyl]-[1,2,4]triazolo[4,3-a]pyridin-3-one trifluoroacetate]",100,> 100000,0.2,3
"CN(C)c1ccc(-c2ccn3c(=O)n(CC(CN)=C(F)F)nc3c2)cn1 [Example 51, 2-[2-(aminomethyl)-3,3-difluoro-allyl]-7-[6-(dimethylamino)-3-pyridyl]-[1,2,4]triazolo[4,3-a]pyridin-3-one trifluoroacetate]",150,> 100000,0.4,17
"NCC(Cn1nc2cc(-c3ccc4c(c3)OCO4)ccn2c1=O)=C(F)F [Example 52, 2-[2-(aminomethyl)-3,3-difluoro-allyl]-7-(1,3-benzodioxol-5-yl)-[1,2,4]triazolo[4,3-a]pyridin-3-one trifluoroacetate]",37,> 100000,0.3,160
"Cc1cc(-c2ccn3c(=O)n(CC(CN)=C(F)F)nc3c2)cc2c1NC(=O)CC2 [Example 53, 6-[2-[2-(aminomethyl)-3,3-difluoro-allyl]-3-oxo-[1,2,4]triazolo[4,3-a]pyridin-7-yl]-8-methyl-3,4-dihydro-1H-quinolin-2-one trifluoroacetate]",320,> 100000,0.2,12
"CN1C(=O)CCc2cc(-c3ccn4c(=O)n(CC(CN)=C(F)F)nc4c3)ccc21 [Example 54, 6-[2-[2-(aminomethyl)-3,3-difluoro-allyl]-3-oxo-[1,2,4]triazolo[4,3-a]pyridin-7-yl]-1-methyl-3,4-dihydroquinolin-2-one trifluoroacetate]",170,> 100000,0.1,22
"CCn1cc(-c2ccn3c(=O)n(CC(CN)=C(F)F)nc3c2)cn1 [Example 55, 2-[2-(aminomethyl)-3,3-difluoro-allyl]-7-(1-ethylpyrazol-4-yl)-[1,2,4]triazolo[4,3-a]pyridin-3-one trifluoroacetate]",5100,> 100000,0.4,1800
"Cn1cc(C#Cc2ccn3c(=O)n(CC(CN)=C(F)F)nc3c2)cn1 [Example 56, 2-[2-(aminomethyl)-3,3-difluoro-allyl]-7-[2-(1-methylpyrazol-4-yl)ethynyl]-[1,2,4]triazolo[4,3-a]pyridin-3-one trifluoroacetate]",2500,> 100000,1,6300
"CN(C)c1ccc(C#Cc2ccn3c(=O)n(CC(CN)=C(F)F)nc3c2)cn1 [Example 57, 2-[2-(aminomethyl)-3,3-difluoro-allyl]-7-[2-[6-(dimethylamino)-3-pyridyl]ethynyl]-[1,2,4]triazolo[4,3-a]pyridin-3-one trifluoroacetate]",6200,> 100000,0.3,120
"NCC(Cn1nc2cc(C#Cc3ccc(N4CCOCC4)nc3)ccn2c1=O)=C(F)F [Example 58, 2-[2-(aminomethyl)-3,3-difluoro-allyl]-7-[2-(6-morpholino-3-pyridyl)ethynyl]-[1,2,4]triazolo[4,3-a]pyridin-3-one trifluoroacetate]",5300,> 100000,0.3,34
